This is an account of results in patent publication US11999727B2 (Tango Therapeutics, Inc., priority 2020, dated 2024).

In assay [1] the target is T1, PRMT5 (Homo sapiens, UniProt O14744).
T1 construct: purchased Viva (custom protein)
Put plainly: PRMT5 biochemical IC50 assay with no cofactor. Conditions: PRMT5, no cofactor; read-out: No Cofactor/ rel IC50. The source says: Table 1 indicates IC50 values (μM) against PRMT5 for exemplary compounds in the presence of SAM as cofactor, with no cofactor, and with MTA as cofactor, respectively (columns 4-6). […] Ki values can be calculated from the IC50 values as described in the Examples section. As detailed in the Examples section, for the assay performed in the presence of SAM, IC50=Ki×1.5 (Ki=IC50/1.5).

Assay [2] has as its system HAP1 MTAP-deleted cell line. Put plainly: SDMA in-cell western assay, HAP1 MTAP-deleted. The class given is cell-based. Conditions: for IC50: Homo sapiens, HAP1, SDMA in-cell western, HAP1 MTAP-deleted, read-out: HAP 1 MTAP deleted IC50; for MTAP intact/deleted ratio: IC50 ratio HAP1 MTAP-intact / HAP1 MTAP-deleted, SDMA in-cell western. In a few lines: (§1)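 Isogenic HAP1 pair: the MTAP-intact line expresses endogenous MTAP, and the deleted line is MTAP-null. Symmetric dimethylarginine was detected by in-cell western and IC50 values derived for each line.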

For assay [3], the target named is T1, PRMT5. Put plainly: PRMT5 biochemical IC50 assay with MTA as cofactor. Conditions: PRMT5, MTA as cofactor; read-out: MTA IC50.
The subject of assay [4] is HAP1 MTAP-intact cell line. Kind of assay: SDMA in-cell western assay, HAP1 MTAP-intact. The assay is classed as cell-based. Conditions: HAP1 MTAP-intact, read-out: MTAP HAP1 intact IC50. In a few lines: as §1
For assay [5], the target named is T1, PRMT5. Put plainly: PRMT5 biochemical IC50 assay with SAM as cofactor. Conditions: PRMT5, SAM as cofactor; read-out: SAM IC50.
The test system of assay [6] is HAP1 MTAP-deleted cell line. Put plainly: Viability assay, MTAP-deleted cell line. Conditions: Homo sapiens, HAP1, viability, HAP1 MTAP-deleted cell line; read-out: HAP1 MTAP deleted viability. The assay is classed as cell-based. The source says: Table 1 additionally indicates IC50 values in a viability assay for the MTAP-deleted cell line (column 10), indicating the effect of treatment with compound on cell survival.

[7] abbreviates: Homo sapiens, HAP1, SDMA in-cell western.

Read-outs that look alike come from different tables or passages of the source.

T1 sequence (O14744 whole entry): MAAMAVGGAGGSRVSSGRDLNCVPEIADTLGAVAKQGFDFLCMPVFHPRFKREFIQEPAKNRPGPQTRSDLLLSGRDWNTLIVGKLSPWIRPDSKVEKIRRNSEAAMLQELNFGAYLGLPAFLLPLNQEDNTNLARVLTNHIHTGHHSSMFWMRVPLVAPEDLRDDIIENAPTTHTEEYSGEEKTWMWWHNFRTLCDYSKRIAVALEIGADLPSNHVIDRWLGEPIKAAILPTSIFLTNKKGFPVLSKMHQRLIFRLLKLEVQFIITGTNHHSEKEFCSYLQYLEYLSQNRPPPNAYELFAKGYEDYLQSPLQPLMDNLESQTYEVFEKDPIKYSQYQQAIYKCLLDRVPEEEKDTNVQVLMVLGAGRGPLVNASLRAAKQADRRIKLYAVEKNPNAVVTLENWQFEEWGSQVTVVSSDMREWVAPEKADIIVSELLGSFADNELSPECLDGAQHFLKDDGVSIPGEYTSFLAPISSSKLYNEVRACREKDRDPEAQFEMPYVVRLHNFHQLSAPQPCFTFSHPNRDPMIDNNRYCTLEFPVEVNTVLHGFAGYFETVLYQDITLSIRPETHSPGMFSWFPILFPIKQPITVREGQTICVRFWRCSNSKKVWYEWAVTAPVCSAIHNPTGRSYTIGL
T1 sequence (Q9BQA1 whole entry partner): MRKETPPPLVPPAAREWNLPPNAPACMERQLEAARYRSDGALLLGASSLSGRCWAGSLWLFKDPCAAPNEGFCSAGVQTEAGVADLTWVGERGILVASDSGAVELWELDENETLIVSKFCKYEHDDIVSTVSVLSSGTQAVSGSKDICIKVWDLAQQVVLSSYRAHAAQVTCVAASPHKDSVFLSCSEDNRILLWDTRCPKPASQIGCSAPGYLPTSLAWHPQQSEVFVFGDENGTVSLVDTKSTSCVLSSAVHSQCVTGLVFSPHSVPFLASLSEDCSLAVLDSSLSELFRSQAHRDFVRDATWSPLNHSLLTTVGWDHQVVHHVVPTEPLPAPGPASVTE

With `CCc1cc(NC(=O)C(=O)N2C[C@@H](C)CC[C@@H]2c2ccc3sc(CCN4CCOCC4)nc3c2)cnc1N` [Compound 1248, N-(6-amino-5-ethylpyridin-3-yl)-2-((2R,5S)-5-methyl-2-(2-(2-morpholinoethyl)benzo[d]thiazol-5-yl)piperidin-1-yl)-2-oxoacetamide], the IC50 is less than 50 nM on PRMT5 [1]; less than 100 nM in assay [2]; less than 50 nM on PRMT5 [3]; 100 to 1000 nM in assay [4] (setting [7]); less than 50 nM on PRMT5 [5]; less than 1000 nM in assay [6]. For the same compound, the “MTAP intact/deleted ratio” value in assay [2] was “A (an IC50 ratio greater than or equal to 10 fold)”.

`CCc1cc(NC(=O)C(=O)N2C[C@@H](C)CC[C@@H]2c2ccc3sc(C4CCN(CC)CC4)nc3c2)cnc1N` [Compound 1252, N-(6-amino-5-ethylpyridin-3-yl)-2-((2R,53)-2-(2-(1-ethylpiperidin-4-yl)benzo[d]thiazol-5-yl)-5-methylpiperidin-1-yl)-2-oxoacetamide]: the IC50 is less than 50 nM on PRMT5 [1]; less than 100 nM in assay [2]; less than 50 nM on PRMT5 [3]; less than 100 nM in assay [4] (setting [7]); 50 to 500 nM at PRMT5 [5]; less than 1000 nM in assay [6]. In addition, in assay [2], the “MTAP intact/deleted ratio” value is “A (an IC50 ratio greater than or equal to 10 fold)”.

In the case of `CCc1cc(NC(=O)C(=O)N2C[C@@H](C)CC[C@@H]2c2ccc3sc([C@@H]4CCN(C)C(=O)C4)nc3c2)cnc1N` [Compound 1256, N-(6-amino-5-ethyl-3-pyridyl)-2-[(2R,5S)-5-methyl-2-[2-(1-methyl-2-oxo-4-piperidyl)-1,3-benzothiazol-5-yl]-1-piperidyl]-2-oxo-acetamide], the IC50 on PRMT5 [1] was less than 50 nM; in assay [2], less than 100 nM; at PRMT5 [3], less than 50 nM; in assay [4] (setting [7]) it was less than 100 nM; at PRMT5 [5] it was 50 to 500 nM; in assay [6], less than 1000 nM. Also, in assay [2], the “MTAP intact/deleted ratio” value is “A (an IC50 ratio greater than or equal to 10 fold)”.

As to `COc1ncc(NC(=O)C(=O)N2C[C@@H](C)CC[C@@H]2c2ccc3sc(C4CN(C)C4)nc3c2)cc1C(N)=O` [Compound 1257], the IC50 at PRMT5 [1] is less than 50 nM; in assay [2], less than 100 nM; on PRMT5 [3] it was less than 50 nM; in assay [4] (setting [7]), 100 to 1000 nM; at PRMT5 [5], less than 50 nM; in assay [6], less than 1000 nM. Moreover, the “MTAP intact/deleted ratio” value in assay [2] was “A (an IC50 ratio greater than or equal to 10 fold)”.

`CCc1cc(NC(=O)C(=O)N2C[C@@H](C)CC[C@@H]2c2ccc3sc([C@H]4C[C@@H](C)N(C)[C@@H](C)C4)nc3c2)cnc1N` [Compound 1261, N-(6-amino-5-ethylpyridin-3-yl)-2-((2R,5S)-5-methyl-2-(2-((2R,4r,6S)-1,2,6-trimethylpiperidin-4-yl)benzo[d]thiazol-5-yl)piperidin-1-yl)-2-oxoacetamide]: the IC50 at PRMT5 [1] is less than 50 nM; in assay [2] it was less than 100 nM; at PRMT5 [3] it was less than 50 nM; in assay [4] (setting [7]), less than 100 nM; on PRMT5 [5], less than 50 nM; in assay [6], less than 1000 nM. Besides, the “MTAP intact/deleted ratio” value in assay [2] is “A (an IC50 ratio greater than or equal to 10 fold)”.

As for `CCc1cc(NC(=O)C(=O)N2C[C@@H](C)CC[C@@H]2c2ccc3sc(CCCN(C)C)nc3c2)cnc1N` [Compound 1262, N-(6-amino-5-ethylpyridin-3-yl)-2-((2R,5S)-2-(2-(3-(dimethylamino)propyl)benzo[d]thiazol-5-yl)-5-methylpiperidin-1-yl)-2-oxoacetamide], the IC50 at PRMT5 [1] was less than 50 nM; in assay [2] it was less than 100 nM; at PRMT5 [3] it was less than 50 nM; in assay [4] (setting [7]), less than 100 nM; at PRMT5 [5] it was less than 50 nM; in assay [6] it was less than 1000 nM. Besides, the “MTAP intact/deleted ratio” value in assay [2] is given as “A (an IC50 ratio greater than or equal to 10 fold)”.

With `C[C@H]1CC[C@H](c2ccc3c(c2)CCN(C)C3)N(C(=O)C(=O)Nc2cnc(N)c(C3CC3)c2)C1` [Compound 1264, N-(6-Amino-5-cyclopropyl-3-pyridyl)-2-[(2R,5S)-5-methyl-2-(2-methyl-3,4-dihydro-1H-isoquinolin-6-yl)-1-piperidyl]-2-oxo-acetamide], the IC50 on PRMT5 [1] was less than 50 nM; in assay [2], less than 100 nM; at PRMT5 [3], less than 50 nM; in assay [4] (setting [7]), 100 to 1000 nM; on PRMT5 [5], 50 to 500 nM; in assay [6], less than 1000 nM. In assay [2], the “MTAP intact/deleted ratio” value is recorded as “A (an IC50 ratio greater than or equal to 10 fold)”.

`Cc1cc(NC(=O)C(=O)N2C[C@@H](C)CC[C@@H]2c2ccc3sc(C4COC4)nc3c2)cnc1N` [Compound 1266, N-(6-amino-5-methylpyridin-3-yl)-2-((2R,5S)-5-methyl-2-(2-(oxetan-3-yl)benzo[d]thiazol-5-yl)piperidin-1-yl)-2-oxoacetamide]: the IC50 on PRMT5 [1] is less than 50 nM; in assay [2], less than 100 nM; at PRMT5 [3], less than 50 nM; in assay [4] (setting [7]), less than 100 nM; at PRMT5 [5] it was 50 to 500 nM; in assay [6], less than 1000 nM. Besides, the “MTAP intact/deleted ratio” value in assay [2] is given as “A (an IC50 ratio greater than or equal to 10 fold)”.

With `CCc1cc(NC(=O)C(=O)N2C[C@@H](C)CC[C@@H]2c2ccc3sc(N4CCOCC4)nc3c2)cnc1N` [Compound 1267, N-(6-amino-5-ethylpyridin-3-yl)-2-((2R,5S)-5-methyl-2-(2-morpholinobenzo[d]thiazol-5-yl)piperidin-1-yl)-2-oxoacetamide], the IC50 at PRMT5 [1] was less than 50 nM; in assay [2] it was less than 100 nM; on PRMT5 [3] it was less than 50 nM; in assay [4] (setting [7]), 100 to 1000 nM; on PRMT5 [5], 50 to 500 nM; in assay [6] it was less than 1000 nM. Moreover, the “MTAP intact/deleted ratio” value in assay [2] is reported as “A (an IC50 ratio greater than or equal to 10 fold)”.

`Cc1cc(NC(=O)C(=O)N2C[C@@H](C)CC[C@@H]2c2ccc3sc(C4CCN(C5COC5)CC4)nc3c2)cnc1N` [Compound 1268, N-(6-amino-5-methylpyridin-3-yl)-2-((2R,5S)-5-methyl-2-(2-(1-(oxetan-3-yl)piperidin-4-yl)benzo[d]thiazol-5-yl)piperidin-1-yl)-2-oxoacetamide]: the IC50 is less than 50 nM on PRMT5 [1]; less than 100 nM in assay [2]; less than 50 nM on PRMT5 [3]; 100 to 1000 nM in assay [4] (setting [7]); less than 50 nM on PRMT5 [5]; less than 1000 nM in assay [6]. In assay [2], the “MTAP intact/deleted ratio” value was “A (an IC50 ratio greater than or equal to 10 fold)”.

Take `CCc1cc(NC(=O)C(=O)N2C[C@@H](C)CC[C@@H]2c2ccn3cc(C4CCN(C)CC4)nc3c2)cnc1N` [Compound 1274, N-(6-amino-5-ethylpyridin-3-yl)-2-((2R,5S)-5-methyl-2-(2-(1-methylpiperidin-4-yl)imidazo[1,2-a]pyridin-7-yl)piperidin-1-yl)-2-oxoacetamide]: the IC50 is less than 50 nM on PRMT5 [1]; less than 100 nM in assay [2]; less than 50 nM at PRMT5 [3]; 100 to 1000 nM in assay [4] (setting [7]); 50 to 500 nM on PRMT5 [5]; less than 1000 nM in assay [6]. Moreover, in assay [2], the “MTAP intact/deleted ratio” value is given as “A (an IC50 ratio greater than or equal to 10 fold)”.

`CCc1cc(NC(=O)C(=O)N2C[C@@H](C)CC[C@@H]2c2ccc3sc([C@H]4CN(C)CCO4)nc3c2)cnc1N` [Compound 1275, N-(6-amino-5-ethylpyridin-3-yl)-2-((2R,5S)-5-methyl-2-(2-(4-methylmorpholin-2-yl)benzo[d]thiazol-5-yl)piperidin-1-yl)-2-oxoacetamide]: the IC50 at PRMT5 [1] was less than 50 nM; in assay [2] it was less than 100 nM; on PRMT5 [3] it was less than 50 nM; in assay [4] (SDMA in-cell western) it was 100 to 1000 nM; on PRMT5 [5], 50 to 500 nM; in assay [6], less than 1000 nM. Moreover, the “MTAP intact/deleted ratio” value in assay [2] is given as “A (an IC50 ratio greater than or equal to 10 fold)”.

In the case of `CCc1cc(NC(=O)C(=O)N2C[C@@H](C)CC[C@@H]2c2ccc(N3CCC(CN4CCCC4)CC3)cc2)cnc1N` [Compound 1276, N-(6-Amino-5-ethylpyridin-3-yl)-2-[(2R,5S)-5-methyl-2-(4-{4-[(pyrrolidin-1-yl)methyl]piperidin-1-yl}phenyl)piperidin-1-yl]-2-oxoacetamide], the IC50 on PRMT5 [1] is less than 50 nM; in assay [2] it was less than 100 nM; on PRMT5 [3] it was less than 50 nM; in assay [4] (setting [7]), 100 to 1000 nM; on PRMT5 [5], less than 50 nM; in assay [6], less than 1000 nM. In addition, the “MTAP intact/deleted ratio” value in assay [2] is “A (an IC50 ratio greater than or equal to 10 fold)”.
